According to paper PMC11724075, “Small-molecule-induced ERBB4 activation to treat heart failure” (Nature Communications, 2025):
Several values for one entry are separate records, joined by “and”; a condition that tells them apart may be missing. Equal values may be shown once.

Experiments:
ERBB4/ERBB4 = target: T1, ERBB4/ERBB4 (Homo sapiens, UniProt Q15303); test: PathHunter U2OS ERBB4/ERBB4 dimerization assay, 96-well dose-response; type: cell-based; details: for ERBB4/ERBB4 dimerization signal: relative to signal with 0.1 µM NRG1, single biological replicates
T1 construct: host or cells: U2OS (osteosarcoma cells), PathHunter engineered line
T1 sequence (Q15303 26-1308): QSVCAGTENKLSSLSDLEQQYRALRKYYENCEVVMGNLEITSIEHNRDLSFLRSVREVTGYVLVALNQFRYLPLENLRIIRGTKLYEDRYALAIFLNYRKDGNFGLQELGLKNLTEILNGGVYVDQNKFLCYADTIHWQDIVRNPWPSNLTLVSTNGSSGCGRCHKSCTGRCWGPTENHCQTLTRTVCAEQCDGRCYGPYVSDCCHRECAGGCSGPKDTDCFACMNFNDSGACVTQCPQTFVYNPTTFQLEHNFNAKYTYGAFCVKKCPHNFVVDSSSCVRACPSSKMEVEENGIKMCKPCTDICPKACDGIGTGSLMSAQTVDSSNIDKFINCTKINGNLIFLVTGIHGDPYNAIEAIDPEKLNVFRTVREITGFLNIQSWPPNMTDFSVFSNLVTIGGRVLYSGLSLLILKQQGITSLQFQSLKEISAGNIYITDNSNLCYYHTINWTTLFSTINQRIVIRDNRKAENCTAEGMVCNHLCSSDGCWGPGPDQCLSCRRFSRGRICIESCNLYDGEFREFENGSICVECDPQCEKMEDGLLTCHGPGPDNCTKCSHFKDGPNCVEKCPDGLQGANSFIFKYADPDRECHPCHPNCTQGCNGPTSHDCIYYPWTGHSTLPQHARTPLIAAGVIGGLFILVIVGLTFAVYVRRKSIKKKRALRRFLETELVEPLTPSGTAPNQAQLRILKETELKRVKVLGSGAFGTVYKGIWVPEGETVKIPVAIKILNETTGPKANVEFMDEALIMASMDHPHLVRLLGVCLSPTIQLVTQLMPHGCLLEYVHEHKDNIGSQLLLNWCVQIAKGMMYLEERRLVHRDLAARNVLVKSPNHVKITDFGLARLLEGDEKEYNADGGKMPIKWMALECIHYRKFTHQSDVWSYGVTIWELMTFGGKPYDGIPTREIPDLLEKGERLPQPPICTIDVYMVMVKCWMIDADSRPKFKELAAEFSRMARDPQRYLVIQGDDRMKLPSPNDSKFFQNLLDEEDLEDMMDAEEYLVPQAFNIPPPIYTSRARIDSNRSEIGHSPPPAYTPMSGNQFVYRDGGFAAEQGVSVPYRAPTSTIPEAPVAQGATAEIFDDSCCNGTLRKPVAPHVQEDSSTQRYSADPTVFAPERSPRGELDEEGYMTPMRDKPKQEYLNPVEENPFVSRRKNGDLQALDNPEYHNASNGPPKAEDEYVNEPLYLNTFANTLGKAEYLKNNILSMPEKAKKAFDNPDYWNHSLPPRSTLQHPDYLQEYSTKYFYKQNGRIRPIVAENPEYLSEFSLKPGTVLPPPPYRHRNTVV
T1 sequence (Q15303 26-1308): as above
Method: PathHunter U2OS ERBB4/ERBB4 (osteosarcoma cells; Eurofins, 93-0961C3), U2OS ERBB2/ERBB4 (osteosarcoma cells; Eurofins, 493-0960C3), ERBB2/ERBB3 (osteosarcoma cells; Eurofins, 93-1042C3) and ERBB1/ERBB1 (osteosarcoma cells; Eurofins, 93-0989C3) dimerization cell lines were cultured according to the manufacturer’s instructions. Briefly, cells were cultured in Cell Culture Reagent 103 (Eurofins, 92-3103 G) supplemented with 250 µg/mL Hygromycin B (Eurofins, 92-0029) and 500 µg/mL G418 (Eurofins, 92-0030), and were maintained at 37 °C in humidified atmosphere of 5% CO2. HCFs (Innoprot, P10454) were cultured in fibroblast medium (Innoprot, P60108) supplemented with 10% (v/v) fetal bovine serum (FBS, Innoprot), 10% (v/v) fibroblast growth supplement (Innoprot), and 1% (v/v) penicillin/streptomycin solution (Innoprot). iAMs[33] (kindly provided by LUMC) were cultured in Advanced DMEM F-12 (Thermo Fisher Scientific, 12634028) supplemented with 2% (v/v) heat-inactivated FBS (Thermo Fisher Scientific, 10270106), 1% (v/v) penicillin/streptomycin (10,000 units/mL and 10 mg/mL respectively, Thermo Fisher Scientific, 15140122), 1× GlutaMAX (Thermo Fisher Scientific, 35050061), and 100 ng/mL doxycycline (Tocris, 4090) for proliferation. To induce differentiation, iAMs were transferred to medium without doxycycline.
U2OS ERBB4/ERBB4 dimerization cells were seeded at a density of 5 × 10^4 cells/well in 100 µL Cell Plating 0 Reagent, in white 96-well plates (PerkinElmer, 6005680) and incubated for 24 h at 37 °C, 5% CO2. […] Next, 110 µL PathHunter Flash Detection Reagent was added to each well and incubated at RT for 1 h after which the luminescence signal was measured using the Luminoskan Ascent (Thermo Fisher Scientific). […] The same experimental set-up was used for the U2OS ERBB2/ERBB4, U2OS ERBB2/ERBB3 and U2OS ERBB1/ERBB1 dimerization cell lines.
Category Parameter Description
Assay Type of assay PathHunter Dimerization assays provide a robust, highly sensitive and easy-to-use cell-based functional assay to study various protein activities in a cell. The assay s use
Enzyme Fragment Complementation technology, where the b-galactosidase (b-gal) enzyme is split into two fragments, ProLink and Enzyme Acceptor. Independently these fragments have no b-gal activity. However, when forced to complement through protein-protein interactions, they form an active b-gal enzyme. The PathHunter Dimerization assay detects ligand induced dimerization of two subunits of a receptor-dimer pair. The cells have been engineered to co-express one receptor subunit (ERBB4) fused to Enzyme
Donor, and a second dimer partner (ERBB4) fused to Enzyme Acceptor. Binding of an agonist to one receptor subunit induces it to interact with its dimer partner, forcing complementation of the two enzyme […]
functional enzyme that hydrolyzes a substrate to generate a chemiluminescent signal.
Target ErbB4 receptor (RTK receptor)
Primary measurement Detection of chemiluminescent signal, induced by small-molecule ErbB4 agonists
Key reagents PathHunter Dimerization ErbB4/ErbB4 Cell
Line (93-0961C3) - PathHunter Flash
Detection Kit (03 -0247) - AssayComplete Cell
AssayComplete Cell Detachment Reagent
(92-0009) - AssayComplete Thawing Reagent
T3 (92-4103TR) - AssayComplete Freezing
Assay protocol https://www.discoverx.com/catalog/pathhun

HCFs [1] = test: RT-qPCR on signaling pathway genes in HCFs; type: cell-based, human; details: single replicates
Method: (§1) RNA was extracted using Nucleospin RNA XS (Macherey-Nagel, 740902.50) according to the manufacturer’s instructions. For cDNA synthesis, total RNA was added to a mixture containing buffer with random hexamers and reverse transcriptase enzyme (TaqMan reverse transcription reagents, Applied biosystems, N8080234) after which samples were incubated for 10 min at 25 °C, 30 min at 48 °C, and 5 min at 95 °C. RT-qPCR was performed on QuantStudio 3 Real-time PCR system (Applied Biosystems) using Taqman Universal PCR Master Mix (Applied Biosystems, 4304437) and Taqman primers according to the manufacturer’s instructions. Settings were as follows: […] followed by 10 min at 95 °C, 40 cycles (45 cycles for ERBB4) of denaturation at 95 °C for 15 s, and 1 min at 60 °C. All reactions were run in duplicate, and all data were normalized against housekeeping genes glyceraldehyde-3-phosphate dehydrogenase (GAPDH), beta-actin (ACTB), or phosphoglycerate kinase 1 (PGK1). Expression levels were calculated using the comparative cycle method and expressed as fold change (FC) to appropriate controls. The following TaqMan primers were used (Thermo Fisher Scientific): GAPDH (Hs02758991_g1, Mm99999915_g1 and Rn01775763_g1), PGK1 (Hs99999906_m1), ID2 (Hs04187239_m1), BMPR1B (Hs01010965_m1), CACNA2D4 (Hs00297782_m1), DUSP2 (Hs00358879_m1), NR4A1 (Hs00374226_m1), SGK1 (Hs00178612_m1), COL1A1 (Mm00801666_g1), COL3A1 (Hs00943809_m1 and Mm00802305_g1), ERBB4 (Hs00955525_m1 and Rn00572447_m1), ACTB (Mm02619580_g1) and ANP (Mm01255747_g1).

HCFs [2] = test: In vitro collagen expression: COL3A1 mRNA in HCFs stimulated with TGF-β1; type: cell-based, human; details: for COL3A1 mRNA expression (FC): TGF-β1 10 ng/mL, 24 h, single replicates
Method: HCFs were seeded at a density of 1.5 ×10^5 cells/well in doxycycline-free medium in 12-well plates (Greiner Bio-One, 665180) and incubated overnight. […] Compounds were pre-incubated for 10 min before addition of TGF-β1.
as §1

| Molecule | ERBB4/ERBB4 dimerization signal (ERBB4/ERBB4; 3.125e-8 M) | ERBB4/ERBB4 dimerization signal (ERBB4/ERBB4; 1.25e-7 M) | ERBB4/ERBB4 dimerization signal (ERBB4/ERBB4; 5e-7 M) | ERBB4/ERBB4 dimerization signal (ERBB4/ERBB4; 2e-6 M) | ERBB4/ERBB4 dimerization signal (ERBB4/ERBB4; 8e-6 M) | ERBB4/ERBB4 dimerization signal (ERBB4/ERBB4; 3.2e-5 M) | BMPR1B mRNA, normalized FC compared to vehicle (HCFs [1]) | CACNA2D4 mRNA, normalized FC compared to vehicle (HCFs [1]) | DUSP2 mRNA, normalized FC compared to vehicle (HCFs [1]) | ID2 mRNA, normalized FC compared to vehicle (HCFs [1]) | NR4A1 mRNA, normalized FC compared to vehicle (HCFs [1]) | SGK1 mRNA, normalized FC compared to vehicle (HCFs [1]) | other results |
| --- | --- | --- | --- | --- | --- | --- | --- | --- | --- | --- | --- | --- | --- |
| O=C(NC1CC1)C(Sc1nc2ccccc2c(=O)n1C1CCCC1)c1ccccc1 (stereo not drawn) [EF-1] | 0 | -0.55 and -0.15 and 2.599 and 0.9551 | -0.55 and 0.26 and 2.323 and -0.4275 | 1.2 and 2.97 and 7.682 and 3.162 | 16.72 and 8.19 and 23.4633 and 9.465 | 30.57 and 22.84 and 33.2287 and 25.0905 | 0.7674 and 0.7715 and 0.7478 and 0.6131 | 0.6726 and 0.5139 and 0.5641 and 0.6199 | 0.652 and 0.6672 and 0.8266 and 0.7945 | 0.7995 and 0.6935 and 0.711 and 0.7833 | 0.6281 and 0.8412 and 0.7864 and 0.7806 | 0.5165 and 0.6795 and 0.6992 and 0.5618 | ERBB4/ERBB4 dimerization signal (ERBB4/ERBB4; 6.25e-8 M): -1.6 and -0.07 and 2.169 and 1.573; ERBB4/ERBB4 dimerization signal (ERBB4/ERBB4; 2.5e-7 M): -1.94 and 0.74 and 2.315 and -0.7582; ERBB4/ERBB4 dimerization signal (ERBB4/ERBB4; 1e-6 M): -2 and 0.47 and 4.362 and -0.05827; ERBB4/ERBB4 dimerization signal (ERBB4/ERBB4; 4e-6 M): 7.41 and 5.76 and 13.8923 and 7.932; ERBB4/ERBB4 dimerization signal (ERBB4/ERBB4; 1.6e-5 M): 24.8 and 17.62 and 27.6207 and 19.8392; Emax, maximum response relative to NRG1 (ERBB4/ERBB4; % of the effect of NRG1): 27.9 ± 4.8%; COL3A1 mRNA expression (FC) (HCFs [2]; EF-1 + SiERBB4, 1e-6 M): 1; COL3A1 mRNA expression (FC) (HCFs [2]; EF-1 + SiERBB4, 4e-6 M): 0.5373 and 0.7163 and 0.5917 and 0.6311 and 0.7899 and 0.8499; COL3A1 mRNA expression (FC) (HCFs [2]; EF-1 + SiERBB4, 8e-6 M): 0.8243 and 0.8469 and 0.7111 and 0.7439 and 0.7398 and 0.6183; COL3A1 mRNA expression (FC) (HCFs [2]; EF-1 + SiERBB4, 1.6e-5 M): 0.5202 and 0.6505 and 0.7517 and 0.6477 and 0.5129; COL3A1 mRNA expression (FC) (HCFs [2]; EF-1 + SiERBB4, 3.2e-5 M): 0.7721 and 0.6715 and 0.5121 and 0.7108 and 0.5403 and 0.6885; COL3A1 mRNA expression (FC) (HCFs [2]; EF-1 + SiScr, 1e-6 M): 0.9505 and 1.0731 and 0.9765; COL3A1 mRNA expression (FC) (HCFs [2]; EF-1 + SiScr, 4e-6 M): 0.3565 and 0.5152 and 0.404; COL3A1 mRNA expression (FC) (HCFs [2]; EF-1 + SiScr, 8e-6 M): 0.4855 and 0.3848 and 0.5526; COL3A1 mRNA expression (FC) (HCFs [2]; EF-1 + SiScr, 1.6e-5 M): 0.2758 and 0.3929 and 0.4764; COL3A1 mRNA expression (FC) (HCFs [2]; EF-1 + SiScr, 3.2e-5 M): 0.4172 and 0.4035 and 0.5599; decrease of TGF-β1-induced COL3A1 mRNA levels (HCFs [2]; HCFs, dose-dependent, 4–32 µM): up to 50% |
| Cc1sc2nc(SC(C)C(=O)NCc3ccc4c(c3)OCO4)n(-c3ccccc3)c(=O)c2c1C (stereo not drawn) [NA-1] | 0 | -1.9 and -5.83 | -1.92 and -5.07 | -1.85 and -3.89 | -1.52 and -5.16 | -1.83 and -4.37 | – | – | – | – | – | – | induction of ERBB4 dimerization (in words) (ERBB4/ERBB4): did not activate ERBB4; effect on TGF-β1-induced COL3A1 expression in HCFs (in words) (HCFs [2]; 4–32 µM): did not affect COL3A1 expression; COL3A1 mRNA expression (FC) (HCFs [2]; NA-1, 1e-6 M): 1; COL3A1 mRNA expression (FC) (HCFs [2]; NA-1, 4e-6 M): 0.6694 and 0.8324 and 0.8909; COL3A1 mRNA expression (FC) (HCFs [2]; NA-1, 8e-6 M): 0.9443 and 0.7317 and 0.6882; COL3A1 mRNA expression (FC) (HCFs [2]; NA-1, 1.6e-5 M): 0.7688 and 0.6597 and 0.5112; COL3A1 mRNA expression (FC) (HCFs [2]; NA-1, 3.2e-5 M): 0.7866 and 0.7983 and 0.6723 |
| neuregulin-1 [NRG1] | – | – | – | – | – | – | 0.8467 and 0.8788 and 0.6722 and 0.547 | 0.587 and 0.7244 and 0.5309 and 0.2575 | 0.9928 and 0.6481 and 0.6778 and 0.7386 | 0.8573 and 0.8679 and 0.8306 and 0.7992 | 0.5297 and 0.9275 and 0.7063 and 0.8111 | 0.7797 and 0.9219 and 0.8239 and 0.6521 | – |
